From ChEMBL document CHEMBL4400520, “Benzofuran-isatin-imine hybrids tethered via different length alkyl linkers: Design, synthesis and in vitro evaluation of anti-tubercular and anti-bacterial activities as well as cytotoxicity” (Eur J Med Chem, 2019)
Values after ≈ are worked out from the molar mass of the structure shown.

What was measured:
[1] = system: Acinetobacter calcoaceticus; test: Antibacterial activity against Acinetobacter calcoaceticus; type: functional
[2] = Tmax in ICR mouse at 25 mg/kg, po; type: ADME, organism-based; details: in vivo
Staphylococcus aureus [3] = test: Antibacterial activity against methicillin-resistant Staphylococcus aureus; type: functional
Staphylococcus aureus [4] = test: Antibacterial activity against methicillin-sensitive Staphylococcus aureus; type: functional
Escherichia coli = test: Antibacterial activity against Escherichia coli; type: functional
[5] = Cmax in ICR mouse at 25 mg/kg, po; type: ADME, organism-based; parameters: dose 25 mg/kg, route oral; details: in vivo
Citrobacter freundii = test: Antibacterial activity against Citrobacter freundii; type: functional
Proteus mirabilis = test: Antibacterial activity against Proteus mirabilis; type: functional
Klebsiella pneumoniae = test: Antibacterial activity against Klebsiella pneumoniae; type: functional
[6] = AUC (0 to infinity) in ICR mouse at 25 mg/kg, po; type: ADME, organism-based; parameters: dose 25 mg/kg, time infinity, route oral; details: in vivo
Enterococcus faecalis = test: Antibacterial activity against Enterococcus faecalis; type: functional
[7] = Metabolic stability in mouse assessed as half life; type: ADME
[8] = Half life in ICR mouse at 25 mg/kg, po; type: ADME, organism-based; details: in vivo
[9] = system: Staphylococcus epidermidis; test: Antibacterial activity against methicillin-sensitive Staphylococcus epidermidis; type: functional
[10] = system: Mycobacterium tuberculosis; test: Antitubercular activity against Mycobacterium tuberculosis H37Rv; type: functional
[11] = system: Staphylococcus epidermidis; test: Antibacterial activity against methicillin-resistant Staphylococcus epidermidis; type: functional
Enterobacter cloacae = test: Antibacterial activity against Enterobacter cloacae; type: functional
Enterococcus faecium = test: Antibacterial activity against Enterococcus faecium; type: functional
[12] = Selectivity index, ratio of CC50 for African green monkey Vero cells to MIC for Mycobacterium tuberculosis H37Rv; type: toxicity; details: read-out: Selectivity Index
Pseudomonas aeruginosa = test: Antibacterial activity against Pseudomonas aeruginosa ATCC 27853; type: functional
Klebsiella aerogenes = test: Antibacterial activity against Enterobacter aerogenes; type: functional
[13] = (§1) Cytotoxicity against African green monkey Vero cells assessed as reduction in cell viability after 72 hrs by MTT assay; type: cell-based; details: chlorocebus sabaeus, Vero cells
Vero = test: as §1; type: cell-based; details: chlorocebus sabaeus, vero, 72 h

Compound	MIC90 [1]	MIC90 (Staphylococcus aureus [3])	MIC90 (Staphylococcus aureus [4])	MIC90 (Escherichia coli)	MIC90 (Citrobacter freundii)	MIC90 (Proteus mirabilis)	MIC90 (Klebsiella pneumoniae)	MIC90 (Enterococcus faecalis)	MIC90 [9]	MIC [10]	MIC90 [11]	MIC90 (Enterobacter cloacae)	MIC90 (Enterococcus faecium)	selectivity ratio [12]	MIC90 (Pseudomonas aeruginosa)	MIC90 (Klebsiella aerogenes)	CC50 at 72 h [13]	other results
CCOC(=O)c1c(-c2ccc(OC)cc2)oc2ccc(OCCCCN3C(=O)/C(=N\OC)c4ccccc43)cc12	1 µg/mL (≈ 1.84 µM)	1 µg/mL (≈ 1.84 µM)	1 µg/mL (≈ 1.84 µM)	0.5 µg/mL (≈ 0.922 µM)	0.25 µg/mL (≈ 0.461 µM)	0.125 µg/mL (≈ 0.23 µM)	0.25 µg/mL (≈ 0.461 µM)	1 µg/mL (≈ 1.84 µM)	0.125 µg/mL (≈ 0.23 µM)	< 0.016 µg/mL	0.5 µg/mL (≈ 0.922 µM)	0.25 µg/mL (≈ 0.461 µM)	8 µg/mL (≈ 14.7 µM)	> 2000	4 µg/mL (≈ 7.37 µM)	0.06 µg/mL (≈ 0.111 µM)	32 µg/mL (≈ 59 µM)	Tmax [2]: 1.65 h; Cmax [5]: 927 ng/mL; AUC(0-inf) [6]: 3020 ng·h/mL; half-life [7]: 0.32 h; half-life [8]: 3.33 h
CCOC(=O)c1c(-c2ccccc2)oc2ccc(OCCCCN3C(=O)/C(=N\OC)c4cc(F)ccc43)cc12	1 µg/mL (≈ 1.88 µM)	2 µg/mL (≈ 3.77 µM)	1 µg/mL (≈ 1.88 µM)	0.125 µg/mL (≈ 0.236 µM)	0.25 µg/mL (≈ 0.471 µM)	0.25 µg/mL (≈ 0.471 µM)	0.25 µg/mL (≈ 0.471 µM)	2 µg/mL (≈ 3.77 µM)	0.25 µg/mL (≈ 0.471 µM)	0.062 µg/mL (≈ 0.117 µM)	1 µg/mL (≈ 1.88 µM)	1 µg/mL (≈ 1.88 µM)	8 µg/mL (≈ 15.1 µM)	516	0.5 µg/mL (≈ 0.942 µM)	0.125 µg/mL (≈ 0.236 µM)	–	CC50 (Vero): 64 µg/mL (≈ 121 µM)
O=C(O)c1cn(C2CC2)c2cc(N3CCNCC3)c(F)cc2c1=O [CIPROFLOXACIN]	0.5 µg/mL (≈ 1.51 µM)	0.25 µg/mL (≈ 0.754 µM)	0.25 µg/mL (≈ 0.754 µM)	0.06 µg/mL (≈ 0.181 µM)	0.03 µg/mL (≈ 0.0905 µM)	≤ 0.03 µg/mL	0.5 µg/mL (≈ 1.51 µM)	0.5 µg/mL (≈ 1.51 µM)	0.125 µg/mL (≈ 0.377 µM)	0.291 µg/mL (≈ 0.878 µM)	4 µg/mL (≈ 12.1 µM)	–	8 µg/mL (≈ 24.1 µM)	–	0.25 µg/mL (≈ 0.754 µM)	0.06 µg/mL (≈ 0.181 µM)	512 µg/mL (≈ 1550 µM)	Tmax [2]: 1.8 h; Cmax [5]: 3130 ng/mL; AUC(0-inf) [6]: 17800 ng·h/mL
CNC(=O)c1c(-c2ccc(O)cc2)oc2ccc(O)c(CN3CCCCC3)c12	–	–	–	–	–	–	–	–	–	< 0.016 µg/mL	–	–	–	> 64000	–	–	> 1020 µg/mL	Tmax [2]: 3.46 h; Cmax [5]: 5060 ng/mL; AUC(0-inf) [6]: 39300 ng·h/mL; half-life [7]: > 1 h; half-life [8]: 9.88 h
CCO/N=C1\C(=O)N(CCCCOc2ccc3oc(-c4ccc(OC)cc4)c(C(=O)OCC)c3c2)c2ccc(F)cc21	8 µg/mL (≈ 13.9 µM)	4 µg/mL (≈ 6.96 µM)	8 µg/mL (≈ 13.9 µM)	0.5 µg/mL (≈ 0.87 µM)	0.5 µg/mL (≈ 0.87 µM)	0.25 µg/mL (≈ 0.435 µM)	2 µg/mL (≈ 3.48 µM)	4 µg/mL (≈ 6.96 µM)	1 µg/mL (≈ 1.74 µM)	0.156 µg/mL (≈ 0.271 µM)	16 µg/mL (≈ 27.8 µM)	0.25 µg/mL (≈ 0.435 µM)	32 µg/mL (≈ 55.7 µM)	410	8 µg/mL (≈ 13.9 µM)	0.5 µg/mL (≈ 0.87 µM)	–	CC50 (Vero): 32 µg/mL (≈ 55.7 µM)
CCOC(=O)c1c(-c2ccc(OC)cc2)oc2ccc(OCCCCCCN3C(=O)/C(=N\NC(N)=S)c4cc(F)ccc43)cc12	16 µg/mL (≈ 25.3 µM)	1 µg/mL (≈ 1.58 µM)	1 µg/mL (≈ 1.58 µM)	0.125 µg/mL (≈ 0.198 µM)	0.25 µg/mL (≈ 0.395 µM)	1 µg/mL (≈ 1.58 µM)	1 µg/mL (≈ 1.58 µM)	1 µg/mL (≈ 1.58 µM)	0.5 µg/mL (≈ 0.79 µM)	< 0.016 µg/mL	2 µg/mL (≈ 3.16 µM)	0.5 µg/mL (≈ 0.79 µM)	32 µg/mL (≈ 50.6 µM)	> 500	4 µg/mL (≈ 6.32 µM)	2 µg/mL (≈ 3.16 µM)	8 µg/mL (≈ 12.6 µM)	–
CCOC(=O)c1c(-c2ccc(OC)cc2)oc2ccc(OCCCN3C(=O)/C(=N\OC)c4ccccc43)cc12	1 µg/mL (≈ 1.89 µM)	4 µg/mL (≈ 7.57 µM)	4 µg/mL (≈ 7.57 µM)	0.25 µg/mL (≈ 0.473 µM)	1 µg/mL (≈ 1.89 µM)	0.5 µg/mL (≈ 0.946 µM)	1 µg/mL (≈ 1.89 µM)	4 µg/mL (≈ 7.57 µM)	0.5 µg/mL (≈ 0.946 µM)	< 0.016 µg/mL	1 µg/mL (≈ 1.89 µM)	0.5 µg/mL (≈ 0.946 µM)	32 µg/mL (≈ 60.5 µM)	> 1000	2 µg/mL (≈ 3.78 µM)	1 µg/mL (≈ 1.89 µM)	128 µg/mL (≈ 242 µM)	–
CCOC(=O)c1c(-c2ccc(F)cc2)oc2ccc(OCCCCCCN3C(=O)C(=O)c4cc(F)ccc43)cc12	4 µg/mL (≈ 7.31 µM)	2 µg/mL (≈ 3.65 µM)	1 µg/mL (≈ 1.83 µM)	0.25 µg/mL (≈ 0.457 µM)	0.06 µg/mL (≈ 0.11 µM)	0.06 µg/mL (≈ 0.11 µM)	1 µg/mL (≈ 1.83 µM)	2 µg/mL (≈ 3.65 µM)	1 µg/mL (≈ 1.83 µM)	< 0.016 µg/mL	4 µg/mL (≈ 7.31 µM)	0.5 µg/mL (≈ 0.913 µM)	16 µg/mL (≈ 29.2 µM)	> 32000	2 µg/mL (≈ 3.65 µM)	0.125 µg/mL (≈ 0.228 µM)	512 µg/mL (≈ 935 µM)	–
CCO/N=C1\C(=O)N(CCCOc2ccc3oc(-c4ccc(OC)cc4)c(C(=O)OCC)c3c2)c2ccc(OC)cc21	4 µg/mL (≈ 6.99 µM)	8 µg/mL (≈ 14 µM)	4 µg/mL (≈ 6.99 µM)	0.5 µg/mL (≈ 0.873 µM)	2 µg/mL (≈ 3.49 µM)	4 µg/mL (≈ 6.99 µM)	2 µg/mL (≈ 3.49 µM)	8 µg/mL (≈ 14 µM)	1 µg/mL (≈ 1.75 µM)	< 0.016 µg/mL	8 µg/mL (≈ 14 µM)	1 µg/mL (≈ 1.75 µM)	64 µg/mL (≈ 112 µM)	> 4000	4 µg/mL (≈ 6.99 µM)	2 µg/mL (≈ 3.49 µM)	32 µg/mL (≈ 55.9 µM)	–
CCOC(=O)c1c(-c2ccc(OC)cc2)oc2ccc(OCCCCN3C(=O)/C(=N\OC)c4cc(F)ccc43)cc12	4 µg/mL (≈ 7.14 µM)	4 µg/mL (≈ 7.14 µM)	1 µg/mL (≈ 1.78 µM)	0.25 µg/mL (≈ 0.446 µM)	0.25 µg/mL (≈ 0.446 µM)	0.25 µg/mL (≈ 0.446 µM)	2 µg/mL (≈ 3.57 µM)	2 µg/mL (≈ 3.57 µM)	0.5 µg/mL (≈ 0.892 µM)	0.031 µg/mL (≈ 0.0553 µM)	2 µg/mL (≈ 3.57 µM)	0.5 µg/mL (≈ 0.892 µM)	16 µg/mL (≈ 28.5 µM)	1030	8 µg/mL (≈ 14.3 µM)	0.5 µg/mL (≈ 0.892 µM)	32 µg/mL (≈ 57.1 µM)	–
CCOC(=O)c1c(-c2ccc(OC)cc2)oc2ccc(OCCCCCN3C(=O)/C(=N\O)c4ccccc43)cc12	2 µg/mL (≈ 3.69 µM)	2 µg/mL (≈ 3.69 µM)	2 µg/mL (≈ 3.69 µM)	0.25 µg/mL (≈ 0.461 µM)	0.5 µg/mL (≈ 0.922 µM)	0.25 µg/mL (≈ 0.461 µM)	1 µg/mL (≈ 1.84 µM)	2 µg/mL (≈ 3.69 µM)	0.25 µg/mL (≈ 0.461 µM)	0.062 µg/mL (≈ 0.114 µM)	4 µg/mL (≈ 7.37 µM)	1 µg/mL (≈ 1.84 µM)	8 µg/mL (≈ 14.7 µM)	1030	4 µg/mL (≈ 7.37 µM)	0.5 µg/mL (≈ 0.922 µM)	64 µg/mL (≈ 118 µM)	–
CCOC(=O)c1c(-c2ccc(OC)cc2)oc2ccc(OCCCCCCN3C(=O)/C(=N\OC)c4cc(F)ccc43)cc12	4 µg/mL (≈ 6.8 µM)	4 µg/mL (≈ 6.8 µM)	4 µg/mL (≈ 6.8 µM)	0.25 µg/mL (≈ 0.425 µM)	0.5 µg/mL (≈ 0.849 µM)	0.125 µg/mL (≈ 0.212 µM)	2 µg/mL (≈ 3.4 µM)	2 µg/mL (≈ 3.4 µM)	0.5 µg/mL (≈ 0.849 µM)	< 0.016 µg/mL	16 µg/mL (≈ 27.2 µM)	0.5 µg/mL (≈ 0.849 µM)	16 µg/mL (≈ 27.2 µM)	> 1000	8 µg/mL (≈ 13.6 µM)	0.5 µg/mL (≈ 0.849 µM)	16 µg/mL (≈ 27.2 µM)	–
